Test results published in PMC6556873, “Rapid Covalent-Probe Discovery by Electrophile-Fragment Screening” (Journal of the American Chemical Society, 2019).
Where two headings read alike, the source gives them in different places.

How the values were obtained:
BSA = molecular target: T1, BSA (Bos taurus, UniProt P02769); design: Intact protein LC/MS covalent labelling, fragments in pools of five, 200 uM each, 4 °C; conditions: 24 h, 4 °C, pool of five; 200 µM; covalent
T1 construct: gene ALB

NNMT (hNNMT) = molecular target: T2, NNMT (hNNMT) (Homo sapiens, UniProt P40261); design: Intact protein LC/MS covalent labelling, fragments in pools of five, 200 uM each, 4 °C; conditions: 24 h, 4 °C, pool of five; 200 µM; covalent
T2 construct: wild type, N-terminal His6 tag kept (no cleavage described), E. coli, construct 31248 Da
T2 sequence (P40261 1-264): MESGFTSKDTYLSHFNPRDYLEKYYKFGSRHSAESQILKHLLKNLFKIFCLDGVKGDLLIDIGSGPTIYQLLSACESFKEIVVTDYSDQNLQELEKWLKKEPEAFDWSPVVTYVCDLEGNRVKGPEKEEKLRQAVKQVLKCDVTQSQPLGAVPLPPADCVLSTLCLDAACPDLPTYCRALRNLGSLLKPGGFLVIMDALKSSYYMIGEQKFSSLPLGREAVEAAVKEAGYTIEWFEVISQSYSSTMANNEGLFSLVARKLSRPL

NUDT7 = molecular target: T3, NUDT7 (Homo sapiens, UniProt P0C024); design: Intact protein LC/MS covalent labelling, fragments in pools of five, 200 uM each, 4 °C; conditions: 24 h, 4 °C, pool of five; 200 µM; covalent
T3 construct: residues 14-235, E. coli, pNIC28-Bsa4, N-terminal His6 tag removed by TEV, construct 26672 Da
T3 sequence (P0C024 14-235): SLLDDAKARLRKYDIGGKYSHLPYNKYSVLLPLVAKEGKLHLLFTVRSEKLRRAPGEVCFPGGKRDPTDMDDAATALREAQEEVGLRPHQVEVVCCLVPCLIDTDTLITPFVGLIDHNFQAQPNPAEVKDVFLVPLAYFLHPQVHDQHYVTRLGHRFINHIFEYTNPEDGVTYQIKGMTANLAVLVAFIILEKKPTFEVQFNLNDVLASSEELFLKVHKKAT

OTUB2 (OTUB2A) = molecular target: T4, OTUB2 (OTUB2A) (Homo sapiens, UniProt Q96DC9); design: Intact protein LC/MS covalent labelling, fragments in pools of five, 200 uM each, 4 °C; conditions: 24 h, 4 °C, pool of five; 200 µM; covalent
T4 construct: full length residues 1-234, E. coli BL21(DE3)-R3, His tag removed by TEV, construct 27312 Da
T4 sequence (Q96DC9 1-234): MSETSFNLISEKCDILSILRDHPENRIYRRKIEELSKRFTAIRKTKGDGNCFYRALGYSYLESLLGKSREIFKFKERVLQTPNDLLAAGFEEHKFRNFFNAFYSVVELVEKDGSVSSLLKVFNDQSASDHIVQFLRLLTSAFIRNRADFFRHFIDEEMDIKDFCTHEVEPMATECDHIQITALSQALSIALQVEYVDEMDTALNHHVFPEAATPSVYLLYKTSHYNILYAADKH

PCAF = molecular target: T5, PCAF (Homo sapiens, UniProt Q92831); design: Intact protein LC/MS covalent labelling, fragments in pools of five, 200 uM each, 4 °C; conditions: 24 h, 4 °C, pool of five; 200 µM; covalent
T5 construct: gene KAT2B
T5 sequence (Q92831 whole entry, the tested form may be a part): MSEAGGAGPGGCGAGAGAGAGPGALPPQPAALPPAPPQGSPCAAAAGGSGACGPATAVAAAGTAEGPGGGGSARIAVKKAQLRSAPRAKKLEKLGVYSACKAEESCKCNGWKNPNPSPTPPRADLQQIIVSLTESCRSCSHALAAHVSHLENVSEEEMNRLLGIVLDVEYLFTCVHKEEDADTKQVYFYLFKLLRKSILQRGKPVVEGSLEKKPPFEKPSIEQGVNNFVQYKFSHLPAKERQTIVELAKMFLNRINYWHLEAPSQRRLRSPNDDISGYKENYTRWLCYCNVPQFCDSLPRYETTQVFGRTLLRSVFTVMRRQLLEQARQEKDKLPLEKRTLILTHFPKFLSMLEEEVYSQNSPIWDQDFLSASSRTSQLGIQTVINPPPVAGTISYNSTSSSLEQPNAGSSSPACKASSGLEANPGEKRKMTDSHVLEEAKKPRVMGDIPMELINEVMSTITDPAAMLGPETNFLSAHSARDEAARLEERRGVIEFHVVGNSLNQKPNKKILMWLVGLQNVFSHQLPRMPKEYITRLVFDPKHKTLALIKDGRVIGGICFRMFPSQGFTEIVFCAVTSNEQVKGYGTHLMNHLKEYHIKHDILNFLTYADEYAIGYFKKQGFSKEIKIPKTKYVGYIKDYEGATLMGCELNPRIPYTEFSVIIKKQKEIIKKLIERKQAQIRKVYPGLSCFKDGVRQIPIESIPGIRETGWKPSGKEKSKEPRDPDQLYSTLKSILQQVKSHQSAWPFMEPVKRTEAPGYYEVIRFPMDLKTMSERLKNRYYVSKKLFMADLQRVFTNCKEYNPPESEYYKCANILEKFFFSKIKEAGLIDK

in vitro [1] = assay: in vitro; design: species or system CCD841, HEK293; conditions: human, hb2 cells, read-out: HB-2 Cells Viability (%)
in vitro [2] = assay: in vitro; design: species or system HB2, HEK293; conditions: human, ccd841 cells
in vitro [3] = assay: in vitro; design: species or system HB2, CCD841; conditions: human, hek293 cells

T1 sequence (P02769 whole entry, the tested form may be a part): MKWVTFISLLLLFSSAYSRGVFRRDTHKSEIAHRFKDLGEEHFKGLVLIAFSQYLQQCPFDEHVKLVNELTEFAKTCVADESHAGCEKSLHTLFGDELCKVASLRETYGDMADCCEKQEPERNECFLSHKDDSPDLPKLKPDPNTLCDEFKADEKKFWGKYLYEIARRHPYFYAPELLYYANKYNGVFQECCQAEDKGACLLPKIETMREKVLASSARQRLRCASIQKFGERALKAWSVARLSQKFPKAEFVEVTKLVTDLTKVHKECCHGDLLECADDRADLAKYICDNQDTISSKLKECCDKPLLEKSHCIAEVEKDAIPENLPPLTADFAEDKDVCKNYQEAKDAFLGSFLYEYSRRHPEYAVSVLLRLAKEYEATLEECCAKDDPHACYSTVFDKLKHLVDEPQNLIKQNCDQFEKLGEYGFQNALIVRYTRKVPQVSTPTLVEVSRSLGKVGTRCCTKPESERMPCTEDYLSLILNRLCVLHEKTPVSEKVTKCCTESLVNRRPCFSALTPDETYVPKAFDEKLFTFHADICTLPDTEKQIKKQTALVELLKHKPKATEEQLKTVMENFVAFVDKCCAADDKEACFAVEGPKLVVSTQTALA

Structure (SMILES)	BSA (BSA)	NNMT (NNMT (hNNMT))	NUDT7 (NUDT7)	OTUB2 (OTUB2 (OTUB2A))	PCAF (PCAF)	viability at 48 h, 10 µM (in vitro [1]) [%]	viability at 48 h, 10 µM (in vitro [2]) [%]	viability at 48 h, 10 µM (in vitro [3]) [%]
C=CC(=O)N1CCCC(c2ncc(C(F)(F)F)[nH]2)C1 (stereo not drawn) [PCM-0102527]	0.09	0	0	0	0	98.6	129	109
C=CC(=O)N1CCN(C(=O)Cc2c(C)noc2C)CC1 [PCM-0102531]	0	0	0	0	0	106	106	91.3
CC(C)c1ccc(NC(=O)CCl)cc1 [PCM-0102532]	0	0.68	0.18	0.33	0	12.7	40.4	7.1
CNC(=O)NC(=O)CCl [PCM-0102534]	0	0	0	0	0	97.9	94.3	92.2
C=CC(=O)NNC(=O)c1ccccc1 [PCM-0102541]	0	0	0	0	0	106	112	106
COC(=O)c1cc(NC(=O)CCl)cn1C [PCM-0102545]	0	0.16	0	0.33	0	54.5	65.4	12.7
C=CC(=O)Nc1nc(C)cc(C)n1 [PCM-0102547]	0	0	0.34	0	0	98.2	100	133
C=CC(=O)N1CCC(c2nccn2C)C1 (stereo not drawn) [PCM-0102553]	0	0.11	0	0	0	99.3	128	103
C=CC(=O)N1CCC2(CC1)CCS(=O)(=O)CC2 [PCM-0102559]	0.12	0	0	0	0	105	113	113
C=CC(=O)N1CC2(CCCC2)c2cc3c(cc2C1C)OCCO3 (stereo not drawn) [PCM-0102560]	0	0.19	0	0	0	102	110	116
C=CC(=O)NCC1=CS(=O)(=O)c2ccccc21 [PCM-0102563]	0	0.07	0	0.04	0	102	110	82.9
C=CC(=O)N1CCCC(c2nncn2C2CC2)C1 (stereo not drawn) [PCM-0102567]	0	0	0	0	0	102	112	113
C=CC(=O)NCC1CCC2(CCOCC2)C1O (stereo not drawn) [PCM-0102569]	0	0.36	0.11	0	0	110	110	84.7
C=CC(=O)N1CCCC1C1COCCC1(C)O (stereo not drawn) [PCM-0102571]	0	0	0	0	0	107	107	104
C=CC(=O)Nc1cccc(C(F)(F)F)c1 [PCM-0102573]	0	0	0	0	0	103	105	108
COc1ccccc1C(=O)NC(=O)CCl [PCM-0102574]	0	0	0	0	0	104	127	118
C=CC(=O)N1CCN(C(=O)Nc2ccc(C)c(Cl)c2)CC1 [PCM-0102604]	0	0	0	0	0	74.6	122	91.5
CCc1cccc(C)c1NC(=O)CCl [PCM-0102618]	0	0	0.11	0	0	98.3	106	101

Continued, in another order:

BSA (BSA)	NNMT (NNMT (hNNMT))	NUDT7 (NUDT7)	OTUB2 (OTUB2 (OTUB2A))	PCAF (PCAF)	Structure (SMILES)	viability at 48 h, 10 µM (in vitro [1]) [%]	viability at 48 h, 10 µM (in vitro [2]) [%]	viability at 48 h, 10 µM (in vitro [3]) [%]
0	0	0	0	0	C=CC(=O)N1CCn2nc(C)nc2C1 [PCM-0102605]	102	104	88.4
0	0	0	0	0	C=CC(=O)NC1(C(N)=O)CCCOC1 (stereo not drawn) [PCM-0102608]	107	107	118
0	0.14	0	0	0	C=CC(=O)N1CCCCC1c1ccc(C(=O)NC)n1C (stereo not drawn) [PCM-0102610]	106	112	99.3
0	0	0	0	0	C=CC(=O)N1CC(C)(C)C1c1cccs1 (stereo not drawn) [PCM-0102611]	107	95.8	71.3
0	0	0	0	0	C=CC(=O)N1CCC(C(=O)[O-])CC1.[Na+] [PCM-0102613]	98.2	125	114
0	0.2	0	0	0	CC1CCCC(C)N1C(=O)CCl (stereo not drawn) [PCM-0102616]	71	88.1	57.9
0	0.16	0	0	0	C=CC(=O)N1CCC(NC(=O)OC(C)(C)C)CC1 [PCM-0102617]	104	105	94.2
0	0.71	0.11	0	0	Cc1ccc(NC(=O)NC(=O)CCl)cc1 [PCM-0102623]	69.1	82.5	80.6
0	0	0	0	0	CC(C)C(C)(C#N)NC(=O)CCl (stereo not drawn) [PCM-0102626]	96.4	82.1	89.9
